Assay results as given in patent US8846933B2, “N-link hydroxamic acid derivatives useful as antibacterial agents” (Pfizer Inc., priority 2009, dated 2014).

Tests used:
[1] = system: Escherichia coli EC-1: VOGEL, mouse virulent; experiment: MIC determination (CLSI), strain EC-1; format: cell-based; conditions: strain EC-1, unit assumed
In short: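 The mouse-virulent VOGEL isolate of E. coli, EC-1, served as test organism. Minimum inhibitory concentration was measured by CLSI dilution methodology (M7-A7; M100-S18 standards).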

[2] = system: Pseudomonas aeruginosa UI-18: Wild-type (PA-7); experiment: MIC determination (CLSI), strain PA-7; format: cell-based; conditions: strain PA-7, unit assumed
In short: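 MIC determined by broth dilution per CLSI M7-A7 guidelines with M100-S18 interpretive standards. Test organism: wild-type Pseudomonas aeruginosa UI-18, designated PA-7.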

[3] = generated in the same manner as in Table 4

Row | SMILES | EC-1 (MIC) [1] [µg/mL] | PA-7 (MIC) [2] [µg/mL] | EC-1 (MIC) [1, 3] [µg/mL] | PA-7 (MIC) [2, 3] [µg/mL]
1 | CC(CCn1ccc(-c2ccc(OCc3cccnc3)cc2)cc1=O)(C(=O)NO)S(C)(=O)=O (centres unmarked) [Example 269, N-hydroxy-2-methyl-2-(methylsulfonyl)-4-{2-oxo-4-[4-(pyridin-3-ylmethoxy)phenyl]pyridin-1(2H)-yl}butanamide] | 0.5 | 2 |  | 
2 | CCCC(CCn1ccc(-c2ccccc2)cc1=O)(C(=O)NO)S(C)(=O)=O (centres unmarked) [Example 294] | > 64 | > 64 |  | 
3 | CC(CCn1ccc(-c2ccc(C#N)cc2)cc1=O)(C(=O)NO)S(C)(=O)=O (centres unmarked) [Example 198, 4-[4-(4-cyanophenyl)-2-oxopyridin-1(2H)-yl]-N-hydroxy-2-methyl-2-(methylsulfonyl)butanamide] | 16 | 8 |  | 
4 | CC(CCn1ccc(-c2cc(F)c(F)c(F)c2)cc1=O)(C(=O)NO)S(C)(=O)=O (centres unmarked) [Example 130, N-hydroxy-2-methyl-2-(methylsulfonyl)-4-[2-oxo-4-(3,4,5-trifluorophenyl)pyridin-1(2H)-yl]butanamide] |  |  | 16 | 8
5 | CCOc1ncccc1-c1ccn(CCC(C)(C(=O)NO)S(C)(=O)=O)c(=O)c1 (centres unmarked) [Example 205, 4-(2-ethoxy-2′-oxo-3,4′-bipyridin-1′(2′H)-yl)-N-hydroxy-2-methyl-2-(methylsulfonyl)butanamide] | > 64 | > 64 |  | 
6 | C[C@@](CCn1ccc(-c2ccc(OCCCCCO)cc2)cc1=O)(C(=O)NO)S(C)(=O)=O [Example 280, (2R)-N-hydroxy-4-[4-{4-[(5-hydroxypentyl)oxy]phenyl}-2-oxopyridin-1(2H)-yl]-2-methyl-2-(methylsulfonyl)butanamide] | 0.25 | 0.5 |  | 
7 | COc1cc(OCCCCO)ccc1-c1ccn(CCC(C)(C(=O)NO)S(C)(=O)=O)c(=O)c1 (centres unmarked) [Example 245] | 64 | 64 |  | 
8 | Cc1cc(OCCO)ccc1-c1ccn(CCC(C)(C(=O)NO)S(C)(=O)=O)c(=O)c1 (centres unmarked) [Example 237, N-hydroxy-4-{4-[4-(2-hydroxyethoxy)-2-methylphenyl]-2-oxopyridin-1(2H)-yl}-2-methyl-2-(methylsulfonyl)butanamide] | > 64 | 32 |  | 
9 | Cc1cnc2cc(-c3ccn(CCC(C)(C(=O)NO)S(C)(=O)=O)c(=O)c3)ccc2c1 (centres unmarked) [Example 308, N-hydroxy-2-methyl-4-[4-(3-methylquinolin-7-yl)-2-oxopyridin-1(2H)-yl]-2-(methylsulfonyl)butanamide] | 2 | 4 |  | 
10 | CC(CCn1ccc(-c2cnc3ccccc3c2)cc1=O)(C(=O)NO)S(C)(=O)=O (centres unmarked) [Example 125, N-hydroxy-2-methyl-2-(methylsulfonyl)-4-(2-oxo-4-quinolin-3-ylpyridin-1(2H)-yl)butanamide] |  |  | 16 | 32
11 | C[C@@](CCn1ccc(-c2ccc(Cl)cc2Cl)cc1=O)(C(=O)NO)S(C)(=O)=O [Example 386] | 2 | 2 |  | 
12 | C[C@@](CCn1ccc(-c2ccc(-n3ncc[n+]3[O-])cc2)cc1=O)(C(=O)NO)S(C)(=O)=O [Example 401, (2R)-N-hydroxy-2-methyl-2-(methylsulfonyl)-4-{4-[4-(1-oxido-2H-1,2,3-triazol-2-yl)phenyl]-2-oxopyridin-1(2H)-yl}butanamide] | 8 | 8 |  | 
13 | C[C@@](CCn1ccc(-c2ccc(-c3ncno3)cc2)cc1=O)(C(=O)NO)S(C)(=O)=O [Example 417, (2R)-N-hydroxy-2-methyl-2-(methylsulfonyl)-4-{4-[4-(1,2,4-oxadiazol-5-yl)phenyl]-2-oxopyridin-1(2H)-yl}butanamide] | 8 | 64 |  | 
14 | Cn1ccnc1-c1cccc(-c2ccn(CCC(C)(C(=O)NO)S(C)(=O)=O)c(=O)c2)c1 (centres unmarked) [Example 172, N-hydroxy-2-methyl-4-{4-[3-(1-methyl-1H-imidazol-2-yl)phenyl]-2-oxopyridin-1(2H)-yl}-2-(methylsulfonyl)butanamide] |  |  | > 64 | > 64
15 | COc1cc(-c2ccn(CC[C@](C)(C(=O)NO)S(C)(=O)=O)c(=O)c2)c(F)cc1C#N [Example 477] | 64 | 32 |  | 
16 | CC(CCn1ccc(-c2ccc(CO)cc2)cc1=O)(C(=O)NO)S(C)(=O)=O (centres unmarked) [Example 72, N-hydroxy-4-{4-[4-(hydroxymethyl)phenyl]-2-oxopyridin-1(2H)-yl}-2-methyl-2-(methylsulfonyl)butanamide] |  |  | > 64 | 16
17 | CC(CCn1ccc(-c2ccc(O)c(F)c2)cc1=O)(C(=O)NO)S(C)(=O)=O (centres unmarked) [Example 70, 4-[4-(3-fluoro-4-hydroxyphenyl)-2-oxopyridin-1(2H)-yl]-N-hydroxy-2-methyl-2-(methylsulfonyl)butanamide] |  |  | > 64 | > 64

Row | SMILES | EC-1 (MIC) [1] [µg/mL] | PA-7 (MIC) [2] [µg/mL] | EC-1 (MIC) [1, 3] [µg/mL] | PA-7 (MIC) [2, 3] [µg/mL]
18 | CC(CCn1ccc(-c2ccc3cc[nH]c3c2)cc1=O)(C(=O)NO)S(C)(=O)=O (centres unmarked) [Example 176, N-hydroxy-4-[4-(1H-indol-6-yl)-2-oxopyridin-1(2H)-yl]-2-methyl-2-(methylsulfonyl)butanamide] |  |  | 8 | 4
19 | CC(CCn1ccc(-c2ccc(OCCCCO)c(F)c2)cc1=O)(C(=O)NO)S(C)(=O)=O (centres unmarked) [Example 240, 4-{4-[3-fluoro-4-(4-hydroxybutoxy)phenyl]-2-oxopyridin-1(2H)-yl}-N-hydroxy-2-methyl-2-(methylsulfonyl)butanamide] | 1 | 4 |  | 
20 | CC(C)c1cccc(-c2ccn(CC[C@](C)(C(=O)NO)S(C)(=O)=O)c(=O)c2)c1 [Example 466] | 2 | 4 |  | 
21 | Cc1nn(-c2ccc(-c3ccn(CC[C@](C)(C(=O)NO)S(C)(=O)=O)c(=O)c3)cc2)nc1C [Example 373, (2R)-4-{4-[4-(4,5-dimethyl-2H-1,2,3-triazol-2-yl)phenyl]-2-oxopyridin-1(2H)-yl}-N-hydroxy-2-methyl-2-(methylsulfonyl)butanamide] | 0.125 | 1 |  | 
22 | Cc1cc(-c2cc(CO)no2)ccc1-c1ccn(CCC(C)(C(=O)NO)S(C)(=O)=O)c(=O)c1 (centres unmarked) [Example 286] | 16 | 16 |  | 
23 | COc1ccc(-c2ccn(CC[C@](C)(C(=O)NO)S(C)(=O)=O)c(=O)c2)c(Cl)c1 [Example 342, (2R)-4-[4-(2-chloro-4-methoxyphenyl)-2-oxopyridin-1(2H)-yl]-N-hydroxy-2-methyl-2-(methylsulfonyl)butanamide] | 0.5 | 0.5 |  | 
24 | CC(C)(C)NC(=O)c1cc(-c2ccn(CCC(C)(C(=O)NO)S(C)(=O)=O)c(=O)c2)ccc1F (centres unmarked) [Example 211, N-tert-butyl-2-fluoro-5-{1-[4-(hydroxyamino)-3-methyl-3-(methylsulfonyl)-4-oxobutyl]-2-oxo-1,2-dihydropyridin-4-yl}benzamide] | 64 | > 64 |  | 
25 | CC(CCn1ccc(-c2ccc(-c3cc(CO)no3)cc2)cc1=O)(C(=O)NO)S(C)(=O)=O (centres unmarked) [Example 95, N-hydroxy-4-[4-{4-[3-(hydroxymethyl)isoxazol-5-yl]phenyl}-2-oxopyridin-1(2H)-yl]-2-methyl-2-(methylsulfonyl)butanamide] |  |  | 8 | 8
26 | CC(CCn1ccc(-c2ccc(-c3cccnc3)c(F)c2)cc1=O)(C(=O)NO)S(C)(=O)=O (centres unmarked) [Example 297, 4-[4-(3-fluoro-4-pyridin-3-ylphenyl)-2-oxopyridin-1(2H)-yl]-N-hydroxy-2-methyl-2-(methylsulfonyl)butanamide] | 1 | 2 |  | 
27 | CC(CCn1ccc(-c2ccc(F)cc2)cc1=O)(C(=O)NO)S(C)(=O)=O (centres unmarked) [Example 192, 4-[4-(4-fluorophenyl)-2-oxopyridin-1(2H)-yl]-N-hydroxy-2-methyl-2-(methylsulfonyl)butanamide] | 8 | 2 |  | 
28 | C[C@@](CCn1ccc(-c2ccc(OCCC[C@@H](O)CO)cc2)cc1=O)(C(=O)NO)S(C)(=O)=O [Example 365, (2R)-4-[4-(4-{[(4R)-4,5-dihydroxypentyl]oxy}phenyl)-2-oxopyridin-1(2H)-yl]-N-hydroxy-2-methyl-2-(methylsulfonyl)butanamide] | 4 | 4 |  | 
29 | CC(CCn1ccc(-c2ccc(OCCCCO)cc2F)cc1=O)(C(=O)NO)S(C)(=O)=O (centres unmarked) [Example 241] | 2 | 2 |  | 
30 | CC(O)Cc1cccc(-c2ccn(CCC(C)(C(=O)NO)S(C)(=O)=O)c(=O)c2)c1 (centres unmarked) [Example 231, N-hydroxy-4-{4-[3-(2-hydroxypropyl)phenyl]-2-oxopyridin-1(2H)-yl}-2-methyl-2-(methylsulfonyl)butanamide] | > 64 | > 64 |  | 
31 | COc1c(F)cc(-c2ccn(CC[C@](C)(C(=O)NO)S(C)(=O)=O)c(=O)c2)cc1F [Example 459] | 2 | 2 |  | 
32 | Cc1nccn1-c1ccc(-c2ccn(CC[C@](C)(C(=O)NO)S(C)(=O)=O)c(=O)c2)cc1 [Example 368, (2R)-N-hydroxy-2-methyl-4-{4-[4-(2-methyl-1H-imidazol-1-yl)phenyl]-2-oxopyridin-1(2H)-yl}-2-(methylsulfonyl)butanamide] | > 64 | 16 |  | 
33 | CC(CCn1ccc(-c2ccc3cnccc3c2)cc1=O)(C(=O)NO)S(C)(=O)=O (centres unmarked) [Example 260, N-hydroxy-4-(4-isoquinolin-6-yl-2-oxopyridin-1(2H)-yl)-2-methyl-2-(methylsulfonyl)butanamide] | 4 | 4 |  | 
34 | CC(CCn1ccc(-c2ccc3cc(OCCCO)ccc3c2)cc1=O)(C(=O)NO)S(C)(=O)=O (centres unmarked) [Example 274, N-hydroxy-4-{4-[6-(3-hydroxypropoxy)-2-naphthyl]-2-oxopyridin-1(2H)-yl}-2-methyl-2-(methylsulfonyl)butanamide] | 0.25 | 2 |  | 
